Tests used:
Type in all cases: in vivo
[1] = tested on: redroot pigweed (Amaranthus retroflexus, AMARE); assay: Pre-emerge test, greenhouse herbicide activity screening; conditions: pre-emerge, rated 14 days after application, 0 = no damage, 100 = complete death
Procedure, shortened: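 Visual ratings on a 0-100 scale (0 no damage, 100 all plants dead) were taken at 14 days after treatment. Rates of 15-1000 g ai/ha in acetone, 187 l/ha, were sprayed onto soil one day after planting (pre-emerge) or onto 2-3 leaf plants with 0.25% v/v surfactant (post-emerge).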

[2] = tested on: barnyardgrass (Echinochloa crus-galli, ECHCG); assay: as above; conditions: pre-emerge, rated 14 days after application, 0 = no damage, 100 = complete death
Procedure, shortened: (§1)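 Sandy loam pots; pre-emerge: sown 1 d pre-spray, surface-watered after, then bottom-watered. Post-emerge: sown 8–21 d before, 2–3 leaf stage, + 0.25% v/v NIS, bottom-watered. Acetone, 187 l/ha track spray, 15–1000 g ai/ha. 0–100 injury score, day 14.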

[3] = tested on: common ragweed (Ambrosia artemisizfolia L., AMBEL); assay: as above; conditions: pre-emerge, rated 14 days after application, 0 = no damage, 100 = complete death
Procedure, shortened: as §1

[4] = tested on: green foxtail (Setaria viridis, SETVI); assay: as above; conditions: pre-emerge, rated 14 days after application, 0 = no damage, 100 = complete death
Procedure, shortened: as §1

[5] = tested on: ivyleaf morningglory (Ipomoea hederacea, IPOHE); assay: as above; conditions: pre-emerge, rated 14 days after application, 0 = no damage, 100 = complete death
Procedure, shortened: as §1

[6] = tested on: johnsongrass (Sorghum halepense, SORHA); assay: as above; conditions: pre-emerge, rated 14 days after application, 0 = no damage, 100 = complete death
Procedure, shortened: as §1

[7] = tested on: lambsquarters (Chenopodium album, CHEAL); assay: as above; conditions: pre-emerge, rated 14 days after application, 0 = no damage, 100 = complete death
Procedure, shortened: as §1

[8] = tested on: large crabgrass (Digitaria sanguinalis, DIGSA); assay: as above; conditions: pre-emerge, rated 14 days after application, 0 = no damage, 100 = complete death
Procedure, shortened: as §1

[9] = tested on: sicklepod (Cassia obtusifolia, CASOB); assay: as above; conditions: pre-emerge, rated 14 days after application, 0 = no damage, 100 = complete death
Procedure, shortened: as §1

[10] = tested on: velvetleaf (Abutilon theophrasti, ABUTH); assay: as above; conditions: pre-emerge, rated 14 days after application, 0 = no damage, 100 = complete death
Procedure, shortened: as §1

[11] = tested on: field corn (Zea mays L., var. Dekalb 535, CORN); assay: Pre-emerge test, crop safety; conditions: pre-emerge, rated 14 days after application, 0 = no damage, 100 = complete death
Procedure, shortened: (§2)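 Applied at 15–1000 g ai/ha from acetone in 187 l/ha spray volume. Post-emergence applications included 0.25% v/v non-ionic surfactant and reached plants sown 8–21 days before. Pre-emergence applications were incorporated by surface watering. Efficacy or crop damage was rated on a 0–100 scale after 14 days.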

[12] = tested on: upland rice (Oryza sp., var. Tebonnet, RICE); assay: Pre-emerge test, crop safety; conditions: pre-emerge, rated 14 days after application, 0 = no damage, 100 = complete death
Procedure, shortened: as §2

[13] = tested on: barnyardgrass (Echinochloa crus-galli, ECHCG); assay: Post-emerge test, greenhouse herbicide activity screening; conditions: phytotoxicity rating 0-100 (0 no damage, 100 complete death), 14 days after application
Procedure, shortened: (§3)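 Fourteen days after spraying, crop and weed injury was graded visually from 0, no effect, to 100, every plant dead. Test substances were dissolved in acetone and applied at 15–1000 g ai/ha with a flat-fan nozzle. Application was either pre-emergence, one day after sowing, or post-emergence at the 2–3 leaf stage.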

[14] = tested on: common ragweed (Ambrosia artemisizfolia L., AMBEL); assay: as above; conditions: phytotoxicity rating 0-100 (0 no damage, 100 complete death), 14 days after application
Procedure, shortened: as §3

[15] = tested on: green foxtail (Setaria viridis, SETVI); assay: as above; conditions: phytotoxicity rating 0-100 (0 no damage, 100 complete death), 14 days after application
Procedure, shortened: as §3

[16] = tested on: ivyleaf morningglory (Ipomoea hederacea, IPOHE); assay: as above; conditions: phytotoxicity rating 0-100 (0 no damage, 100 complete death), 14 days after application
Procedure, shortened: as §3

[17] = tested on: johnsongrass (Sorghum halepense, SORHA); assay: as above; conditions: phytotoxicity rating 0-100 (0 no damage, 100 complete death), 14 days after application
Procedure, shortened: as §3

[18] = tested on: lambsquarters (Chenopodium album, CHEAL); assay: as above; conditions: phytotoxicity rating 0-100 (0 no damage, 100 complete death), 14 days after application
Procedure, shortened: as §3

[19] = tested on: large crabgrass (Digitaria sanguinalis, DIGSA); assay: as above; conditions: phytotoxicity rating 0-100 (0 no damage, 100 complete death), 14 days after application
Procedure, shortened: as §3

[20] = tested on: redroot pigweed (Amaranthus retroflexus, AMARE); assay: as above; conditions: phytotoxicity rating 0-100 (0 no damage, 100 complete death), 14 days after application
Procedure, shortened: as §3

[21] = tested on: sicklepod (Cassia obtusifolia, CASOB); assay: as above; conditions: phytotoxicity rating 0-100 (0 no damage, 100 complete death), 14 days after application
Procedure, shortened: as §3

[22] = tested on: velvetleaf (Abutilon theophrasti, ABUTH); assay: as above; conditions: phytotoxicity rating 0-100 (0 no damage, 100 complete death), 14 days after application
Procedure, shortened: as §3

[23] = tested on: field corn (Zea mays L., var. Dekalb 535, CORN); assay: Post-emerge test, crop safety; conditions: phytotoxicity rating 0-100 (0 no damage, 100 complete death), 14 days after application
Procedure, shortened: as §1

[24] = tested on: upland rice (Oryza sp., var. Tebonnet, RICE); assay: Post-emerge test, crop safety; conditions: phytotoxicity rating 0-100 (0 no damage, 100 complete death), 14 days after application
Procedure, shortened: as §1

## COc1c(Cl)cc(F)c(-n2c(=O)c(NC(=O)C(F)(F)F)c(C(F)(F)F)n(C)c2=O)c1NC(=O)C(F)(F)F [2-12]
[1]; 63 g ai/ha
  Pre-emerge Herbicidal Activity AMARE (phytotoxicity rating, scale 0-100): 30
[1]; 250 g ai/ha
  Pre-emerge Herbicidal Activity AMARE (phytotoxicity rating, scale 0-100): 100
[2]; 63 g ai/ha
  Pre-emerge Herbicidal Activity ECHCG (phytotoxicity rating, scale 0-100): 0
[2]; 250 g ai/ha
  Pre-emerge Herbicidal Activity ECHCG (phytotoxicity rating, scale 0-100): 0
[3]; 63 g ai/ha
  Pre-emerge Herbicidal Activity AMBEL (phytotoxicity rating, scale 0-100): 0
[3]; 250 g ai/ha
  Pre-emerge Herbicidal Activity AMBEL (phytotoxicity rating, scale 0-100): 0
[4]; 63 g ai/ha
  Pre-emerge Herbicidal Activity SETVI (phytotoxicity rating, scale 0-100): 0
[4]; 250 g ai/ha
  Pre-emerge Herbicidal Activity SETVI (phytotoxicity rating, scale 0-100): 0
[5]; 63 g ai/ha
  Pre-emerge Herbicidal Activity IPOHE (phytotoxicity rating, scale 0-100): 40
[5]; 250 g ai/ha
  Pre-emerge Herbicidal Activity IPOHE (phytotoxicity rating, scale 0-100): 70
[6]; 63 g ai/ha
  Pre-emerge Herbicidal Activity SORHA (phytotoxicity rating, scale 0-100): 0
[6]; 250 g ai/ha
  Pre-emerge Herbicidal Activity SORHA (phytotoxicity rating, scale 0-100): 0
[7]; 63 g ai/ha
  Pre-emerge Herbicidal Activity CHEAL (phytotoxicity rating, scale 0-100): 0
[7]; 250 g ai/ha
  Pre-emerge Herbicidal Activity CHEAL (phytotoxicity rating, scale 0-100): 30
[8]; 63 g ai/ha
  Pre-emerge Herbicidal Activity DIGSA (phytotoxicity rating, scale 0-100): 0
[8]; 250 g ai/ha
  Pre-emerge Herbicidal Activity DIGSA (phytotoxicity rating, scale 0-100): 0
[9]; 63 g ai/ha
  Pre-emerge Herbicidal Activity CASOB (phytotoxicity rating, scale 0-100): 30
[9]; 250 g ai/ha
  Pre-emerge Herbicidal Activity CASOB (phytotoxicity rating, scale 0-100): 40
[10]; 63 g ai/ha
  Pre-emerge Herbicidal Activity ABUTH (phytotoxicity rating, scale 0-100): 50
[10]; 250 g ai/ha
  Pre-emerge Herbicidal Activity ABUTH (phytotoxicity rating, scale 0-100): 70
[11]; 63 g ai/ha
  Pre-emerge crop damage CORN (phytotoxicity rating, scale 0-100): 0
[11]; 250 g ai/ha
  Pre-emerge crop damage CORN (phytotoxicity rating, scale 0-100): 0
[12]; 63 g ai/ha
  Pre-emerge crop damage RICE (phytotoxicity rating, scale 0-100): 0
[12]; 250 g ai/ha
  Pre-emerge crop damage RICE (phytotoxicity rating, scale 0-100): 0
[13]; 63 g ai/ha
  Post-emerge Herbicidal Activity ECHCG: 0
[13]; 250 g ai/ha
  Post-emerge Herbicidal Activity ECHCG: 0
[14]; 63 g ai/ha
  Post-emerge Herbicidal Activity AMBEL: 0
[14]; 250 g ai/ha
  Post-emerge Herbicidal Activity AMBEL: 10
[15]; 63 g ai/ha
  Post-emerge Herbicidal Activity SETVI: 0
[15]; 250 g ai/ha
  Post-emerge Herbicidal Activity SETVI: 0
[16]; 63 g ai/ha
  Post-emerge Herbicidal Activity IPOHE: 0
[16]; 250 g ai/ha
  Post-emerge Herbicidal Activity IPOHE: 50
[17]; 63 g ai/ha
  Post-emerge Herbicidal Activity SORHA: 0
[17]; 250 g ai/ha
  Post-emerge Herbicidal Activity SORHA: 0
[18]; 63 g ai/ha
  Post-emerge Herbicidal Activity CHEAL: 0
[18]; 250 g ai/ha
  Post-emerge Herbicidal Activity CHEAL: 40
[19]; 63 g ai/ha
  Post-emerge Herbicidal Activity DIGSA: 0
[19]; 250 g ai/ha
  Post-emerge Herbicidal Activity DIGSA: 0
[20]; 63 g ai/ha
  Post-emerge Herbicidal Activity AMARE: 0
[20]; 250 g ai/ha
  Post-emerge Herbicidal Activity AMARE: 10
[21]; 63 g ai/ha
  Post-emerge Herbicidal Activity CASOB: 0
[21]; 250 g ai/ha
  Post-emerge Herbicidal Activity CASOB: 0
[22]; 63 g ai/ha
  Post-emerge Herbicidal Activity ABUTH: 20
[22]; 250 g ai/ha
  Post-emerge Herbicidal Activity ABUTH: 65
[23]; 63 g ai/ha
  Post-emerge Herbicidal Activity CORN (crop damage): 0
[23]; 250 g ai/ha
  Post-emerge Herbicidal Activity CORN (crop damage): 0
[24]; 63 g ai/ha
  Post-emerge Herbicidal Activity RICE (crop damage): 0
[24]; 250 g ai/ha
  Post-emerge Herbicidal Activity RICE (crop damage): 0

Reference: US6355799B1, “Substituted benzene compounds, process for their preparation, and herbicidal and defoliant compositions containing them” (ISK Americas Incorporated, priority 1997, dated 2002)
